In US9751824B2, “Acetyl salicyclic acid dimers, synthesis thereof, and uses thereof to prevent and treat complement-mediated disorders” (Aurin Biotech Inc., priority 2013, dated 2017):

Columns and labels:
[1] = test system: classical complement pathway; assay: CH50 assay, hemolysis of sensitized human red blood cells by zymosan-activated cat serum; format: cell-based; conditions: Felis catus, Erythrocyte, read-out: IC50, protection of human red blood cells from complement attack
Description: (§1) To evaluate the strength of blockade of the classical complement pathway achieved by DAS-1 and DAS-2, a standard CH50 assay was employed. Normal human red blood cells were sensitized by incubation overnight with rabbit anti red blood cell antibody. Then dilutions of serum activated by zymosan, with and without various amounts of DAS-1, DAS-2, or the precursor acetylsalicylic acid, were incubated with the sensitized red blood cells for 1 hour at 37° C. The incubates were centrifuged at 5,000 rpm for 10 min. The hemoglobin released into the serum from red blood cells that had been destroyed by complement attack, was determined by reading the optical density (OD) at 405 nm. As a positive control, red blood cells were 100% lysed with water, and as a negative control, no serum was added to the incubate.
(§2) DAS-1 and DAS-2 protected human red blood cells from complement attack by zymogen activated serum of human, rat, cat, and dog. FIG. 3A illustrates the result for DAS-1.

C4 = assay: Fluorometric binding to immobilized protein (FIG. 6); set-up: species or system human; conditions: compound 100 microgm/mL; protein 32 ng/mL
Description: (§3) The next set of experiments directly tested the binding of DAS-1 and DAS-2 to properdin, Factor D and complement proteins. These proteins were immobilized on microwell plates in a concentration range of 1-32 ng/mL. DAS-1 and DAS-2 were then added at a concentration of 100 microgm/mL and the solutions incubated as previously described. DAS-1 and DAS-2 binding to the proteins was then assayed according to a previously published fluorometric method except that the excitation frequency was […] and the emission frequency […]. […] Such binding explains why DAS-1 and DAS-2 block the alternative pathway at the stage where Factor D cleaves PC3B to form PC3Bb, and both the classical and alternative pathways at the stage where C9 adds to C5b678. […] There was no binding of DAS-1 or DAS-2 to properdin and only background fluorescence was observed.

[2] = biological target: T1, C5b-9 membrane attack complex (Homo sapiens, UniProt P02748); assay: Western blot of red blood cell membranes, classical pathway (FIG. 4A); format: cell-based; conditions: zymosan-activated human serum, alternative pathway blocked by antibodies to properdin and Factor D
T1 construct: from tissue; host or cells: human serum, with human red blood cells as the target membrane
Description: To determine at which stage of the complement cascade blockade was occurring, a variation of the CH50 assay was carried out. Instead of measuring hemolysis, western blot analyses of red blood cell membranes were carried out to determine which serum complement proteins were converted into activated complement products that became attached to susceptible membranes. Such attachment only occurs up to the stage of blockade. At stages beyond the blockade, they remain unchanged in the serum. Undiluted human serum was treated for 30 min with DAS-1, DAS-2, or acetyl salicylic acid. Then antibody-conjugated red blood cells in an equal volume were added. The mixtures were incubated at 37° C. for 1 h. They were then treated with a lysis buffer followed by a loading buffer for western blots. Equal amounts of protein from each sample were loaded onto gels and separated by 10% SDS-PAGE. Following SDS-PAGE, proteins were transferred to a PVDF membrane. The membranes were then treated with various primary antibodies followed by labeled secondary antibodies using well established techniques. Bands recognized by the antibodies were visualized by use of an enhanced chemiluminescence system and exposure to photographic film. For probing the same membrane with different antibodies, the membranes were treated with stripping buffer and then treated as before with a different primary antibody. […] The adjacent lane illustrates the effect of adding to the serum zymosan to activate complement, and antibodies to properdin and Factor D to block the alternative pathway. Sensitized red blood cells then become hemolyzed by classical pathway attack. Native serum proteins are consumed and become incorporated into the red cell membranes. C1q was not metabolized, but the band was intensified due to its dissociation from the C1 complex. Native C3 was no longer detected because it had been cleaved, and the C3b fragment had become covalently attached to the membrane. Its degradation product C3d was detected. C4 was no longer detected because it had similarly been cleaved and the C4b fragment attached to the membrane and metabolized into its degradation product C4d. This fragment was also detected. C5 was cleaved and a band for the C5a product detected. Finally, the C5b-9 membrane attack complex, which had formed on the red cell membrane causing its hemolysis, was detected. The next two lanes show the effects of incubation in the presence of DAS-1, DAS-2. […] This establishes that the block provided by DAS-1 and DAS-2 was at the MAC assembly stage.

[3] = test system: C3 convertase of the alternative pathway; assay: Western blot of red blood cell membranes, alternative pathway with C1 inhibitor (FIG. 5); format: cell-based, human; conditions: 1 microM; serum 15 fold dilution, zymosan, C1 inhibitor 1.8 micrograms/mL
Description: To determine the effects of DAS-1 and DAS-2 on the alternative pathway, further experiments were carried out as shown in FIG. 5. […] To these mixtures human RBCs (5×10^9) were added. The mixtures were incubated for 1 h at 37° C. and centrifuged at 5,000 rpm for […]. The pellets were washed two times with Hank's balanced salt solution (HBSS) and treated with sample loading buffer for SDS-PAGE and immunoblotting. The buffer consisted of 50 mM Tris (pH 6.8), 0.1% SDS, 0.1% bromophenol blue and 10% glycerol. To preserve the molecular complexes that had formed, mild conditions for SDS-PAGE were followed. The sample loading buffer used was 50 mM Tris (pH 6.8), 1% SDS, 0.1% bromophenol blue and 10% glycerol and 2% beta-mercaptoethanol.
However an independent band for C3b was not detected. […] Lanes 3 and 4 show the results obtained in the presence of 1 microM of DAS-1 or DAS-2. […] Instead, strong bands for the earlier steps of PC3b and PC3bB appeared.

[4] = biological target: T1, C5b-9 membrane attack complex; assay: Western blot of membrane attack complex assembly stage with C6, C7, C8, C9 antibodies (FIG. 4B); format: cell-based; conditions: western blots probed with antibodies to C6, C7, C8 and C9
Description: To determine at which stage of the complement cascade blockade was occurring, a variation of the CH50 assay was carried out. Instead of measuring hemolysis, western blot analyses of red blood cell membranes were carried out to determine which serum complement proteins were converted into activated complement products that became attached to susceptible membranes. Such attachment only occurs up to the stage of blockade. At stages beyond the blockade, they remain unchanged in the serum. Undiluted human serum was treated for 30 min with DAS-1, DAS-2, or acetyl salicylic acid. Then antibody-conjugated red blood cells in an equal volume were added. The mixtures were incubated at 37° C. for 1 h. They were then treated with a lysis buffer followed by a loading buffer for western blots. Equal amounts of protein from each sample were loaded onto gels and separated by 10% SDS-PAGE. Following SDS-PAGE, proteins were transferred to a PVDF membrane. The membranes were then treated with various primary antibodies followed by labeled secondary antibodies using well established techniques. Bands recognized by the antibodies were visualized by use of an enhanced chemiluminescence system and exposure to photographic film. […] The C6 antibody detected C5b6, C5b67, and C5b678. The C7 antibody detected C5b67 and C5b678, while the C8 antibody detected C5b678. […]

[5] = test system: classical complement pathway; assay: CH50 assay, hemolysis of sensitized human red blood cells by zymosan-activated dog serum; format: cell-based; conditions: Canis lupus familiaris, Erythrocyte, read-out: IC50, protection of human red blood cells from complement attack
Description: as §1, §2

[6] = test system: classical complement pathway; assay: CH50 assay, hemolysis of sensitized human red blood cells by zymosan-activated human serum; format: cell-based; conditions: for IC50: Erythrocyte, zymosan-activated human serum, read-out: IC50, protection of human red blood cells from complement attack
Description: as §1, §2

Factor B = biological target: T2, Factor B (Homo sapiens, UniProt P00751); assay: Fluorometric binding to immobilized protein (FIG. 6); conditions: compound 100 microgm/mL; protein 32 ng/mL
T2 construct: purchased Sigma, St. Louis, MO
Description: as §3

C9 = biological target: T3, C9 (Homo sapiens, UniProt P02748); assay: as above; conditions: compound 100 microgm/mL; protein immobilized 1-32 ng/mL
T3 construct: purchased Sigma, St. Louis, MO
Description: as §3

C3 = biological target: T4, C3 (Homo sapiens, UniProt P01024); assay: as above; conditions: compound 100 microgm/mL; protein 32 ng/mL
T4 construct: purchased Sigma, St. Louis, MO
Description: as §3

C7 = biological target: T5, C7 (Homo sapiens, UniProt P10643); assay: as above; conditions: compound 100 microgm/mL; protein 32 ng/mL
T5 construct: purchased Quidel, San Diego, CA
Description: as §3

properdin = biological target: T6, properdin (Homo sapiens, UniProt P27918); assay: as above; conditions: compound 100 microgm/mL; only background fluorescence
T6 construct: purchased Quidel, San Diego, CA
Description: as §3

C5 = biological target: T7, C5 (Homo sapiens, UniProt P01031); assay: as above; conditions: compound 100 microgm/mL; protein 32 ng/mL
T7 construct: purchased Complement technology Inc., Tyler, TX
Description: as §3

C8 = biological target: T8, C8 (Homo sapiens, UniProt P07357+P07358+P07360); assay: as above; conditions: compound 100 microgm/mL; protein 32 ng/mL
T8 construct: purchased Sigma, St. Louis, MO
Description: as §3

C6 = biological target: T9, C6 (Homo sapiens, UniProt P13671); assay: as above; conditions: compound 100 microgm/mL; protein 32 ng/mL
T9 construct: purchased Sigma, St. Louis, MO
Description: as §3

C2 = biological target: T10, C2 (Homo sapiens, UniProt P06681); assay: as above; conditions: compound 100 microgm/mL; protein 32 ng/mL
T10 construct: purchased Sino Biologicals Inc., Beijing, China
T10 sequence (P06681 21-752): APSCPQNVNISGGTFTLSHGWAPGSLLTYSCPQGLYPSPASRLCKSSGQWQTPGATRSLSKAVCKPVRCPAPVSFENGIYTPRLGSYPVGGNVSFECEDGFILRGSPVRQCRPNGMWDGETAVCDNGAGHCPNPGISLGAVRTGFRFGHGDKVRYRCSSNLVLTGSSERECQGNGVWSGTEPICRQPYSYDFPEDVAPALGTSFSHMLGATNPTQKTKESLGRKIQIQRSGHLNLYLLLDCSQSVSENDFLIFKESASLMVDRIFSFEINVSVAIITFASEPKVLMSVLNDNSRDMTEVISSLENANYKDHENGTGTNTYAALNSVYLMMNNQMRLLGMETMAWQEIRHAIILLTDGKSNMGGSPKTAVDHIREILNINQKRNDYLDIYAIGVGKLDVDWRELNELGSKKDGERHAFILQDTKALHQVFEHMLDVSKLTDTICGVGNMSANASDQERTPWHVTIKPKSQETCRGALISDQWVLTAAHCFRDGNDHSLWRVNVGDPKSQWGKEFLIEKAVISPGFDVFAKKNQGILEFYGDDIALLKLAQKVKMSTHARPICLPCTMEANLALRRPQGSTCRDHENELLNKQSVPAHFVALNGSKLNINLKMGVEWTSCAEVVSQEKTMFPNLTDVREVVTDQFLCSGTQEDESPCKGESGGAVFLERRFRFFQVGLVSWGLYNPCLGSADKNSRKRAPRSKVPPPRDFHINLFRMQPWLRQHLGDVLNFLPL
Description: as §3

Factor D = biological target: T11, Factor D (Homo sapiens, UniProt P00746); assay: as above; conditions: compound 100 microgm/mL; protein immobilized 1-32 ng/mL
T11 construct: purchased Quidel, San Diego, CA
Description: as §3

[7] = test system: classical complement pathway; assay: CH50 assay, hemolysis of sensitized human red blood cells by zymosan-activated rat serum; format: cell-based; conditions: Erythrocyte, read-out: IC50, protection of human red blood cells from complement attack
Description: as §1, §2

T1 sequence (P02748 22-559, one chain of several): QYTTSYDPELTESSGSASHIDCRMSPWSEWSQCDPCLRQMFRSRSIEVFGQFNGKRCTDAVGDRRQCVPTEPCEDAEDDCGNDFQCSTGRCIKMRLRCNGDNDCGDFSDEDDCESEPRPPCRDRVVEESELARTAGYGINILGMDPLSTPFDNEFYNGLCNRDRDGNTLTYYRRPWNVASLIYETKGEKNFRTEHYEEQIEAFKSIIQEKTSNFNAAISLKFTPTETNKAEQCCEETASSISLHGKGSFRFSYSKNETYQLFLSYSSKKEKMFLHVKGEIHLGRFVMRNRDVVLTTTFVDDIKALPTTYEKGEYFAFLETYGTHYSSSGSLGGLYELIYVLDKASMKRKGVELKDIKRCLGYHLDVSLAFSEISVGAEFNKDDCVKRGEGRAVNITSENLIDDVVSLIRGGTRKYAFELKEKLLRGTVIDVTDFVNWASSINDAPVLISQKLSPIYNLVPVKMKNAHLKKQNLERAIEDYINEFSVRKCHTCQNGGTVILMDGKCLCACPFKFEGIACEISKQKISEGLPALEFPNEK
T5 sequence (P10643 23-843): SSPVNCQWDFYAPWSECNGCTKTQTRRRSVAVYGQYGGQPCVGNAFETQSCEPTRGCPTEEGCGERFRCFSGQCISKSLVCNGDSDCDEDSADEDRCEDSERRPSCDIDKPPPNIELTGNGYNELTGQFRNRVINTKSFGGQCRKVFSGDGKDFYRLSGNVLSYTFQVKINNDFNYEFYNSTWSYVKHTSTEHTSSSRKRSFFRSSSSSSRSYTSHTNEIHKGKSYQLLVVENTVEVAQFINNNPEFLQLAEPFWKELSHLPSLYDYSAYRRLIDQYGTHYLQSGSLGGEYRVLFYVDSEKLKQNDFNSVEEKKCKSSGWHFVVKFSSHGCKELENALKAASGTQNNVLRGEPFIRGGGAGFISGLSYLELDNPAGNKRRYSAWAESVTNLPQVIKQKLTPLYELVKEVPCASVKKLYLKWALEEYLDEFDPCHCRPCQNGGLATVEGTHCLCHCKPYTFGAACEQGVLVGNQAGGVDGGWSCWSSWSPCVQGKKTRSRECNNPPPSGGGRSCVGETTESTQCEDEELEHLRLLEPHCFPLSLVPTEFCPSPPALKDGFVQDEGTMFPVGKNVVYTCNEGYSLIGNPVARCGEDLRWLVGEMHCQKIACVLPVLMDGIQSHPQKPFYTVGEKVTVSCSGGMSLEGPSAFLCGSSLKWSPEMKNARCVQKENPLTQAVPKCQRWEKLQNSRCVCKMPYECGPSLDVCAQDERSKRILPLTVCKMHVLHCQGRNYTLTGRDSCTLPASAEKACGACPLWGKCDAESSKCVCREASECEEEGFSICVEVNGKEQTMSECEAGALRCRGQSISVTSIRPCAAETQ
T2 sequence (P00751 26-764): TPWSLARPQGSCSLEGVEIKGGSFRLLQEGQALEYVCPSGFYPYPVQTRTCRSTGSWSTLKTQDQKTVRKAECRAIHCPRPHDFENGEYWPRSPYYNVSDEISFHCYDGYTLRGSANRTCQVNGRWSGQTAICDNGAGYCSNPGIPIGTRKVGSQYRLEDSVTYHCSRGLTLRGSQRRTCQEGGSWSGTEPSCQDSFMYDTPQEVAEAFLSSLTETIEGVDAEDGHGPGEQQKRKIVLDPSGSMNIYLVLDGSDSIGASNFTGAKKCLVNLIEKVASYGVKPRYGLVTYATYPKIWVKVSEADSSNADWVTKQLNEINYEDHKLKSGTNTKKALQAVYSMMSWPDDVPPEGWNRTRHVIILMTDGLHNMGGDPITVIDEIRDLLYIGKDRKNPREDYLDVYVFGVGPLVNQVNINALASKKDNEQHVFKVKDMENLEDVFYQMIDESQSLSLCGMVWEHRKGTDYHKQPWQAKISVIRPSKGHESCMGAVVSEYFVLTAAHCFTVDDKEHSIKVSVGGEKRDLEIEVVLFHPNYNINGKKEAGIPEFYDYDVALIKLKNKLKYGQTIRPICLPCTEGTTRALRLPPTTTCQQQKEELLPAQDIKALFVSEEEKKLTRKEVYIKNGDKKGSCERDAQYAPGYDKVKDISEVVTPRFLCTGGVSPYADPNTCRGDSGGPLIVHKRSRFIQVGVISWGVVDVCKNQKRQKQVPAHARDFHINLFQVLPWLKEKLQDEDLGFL
T3 sequence (P02748 22-559): as the sequence (P02748 22-559, one chain of several) above
T8 sequence (P07357 31-584): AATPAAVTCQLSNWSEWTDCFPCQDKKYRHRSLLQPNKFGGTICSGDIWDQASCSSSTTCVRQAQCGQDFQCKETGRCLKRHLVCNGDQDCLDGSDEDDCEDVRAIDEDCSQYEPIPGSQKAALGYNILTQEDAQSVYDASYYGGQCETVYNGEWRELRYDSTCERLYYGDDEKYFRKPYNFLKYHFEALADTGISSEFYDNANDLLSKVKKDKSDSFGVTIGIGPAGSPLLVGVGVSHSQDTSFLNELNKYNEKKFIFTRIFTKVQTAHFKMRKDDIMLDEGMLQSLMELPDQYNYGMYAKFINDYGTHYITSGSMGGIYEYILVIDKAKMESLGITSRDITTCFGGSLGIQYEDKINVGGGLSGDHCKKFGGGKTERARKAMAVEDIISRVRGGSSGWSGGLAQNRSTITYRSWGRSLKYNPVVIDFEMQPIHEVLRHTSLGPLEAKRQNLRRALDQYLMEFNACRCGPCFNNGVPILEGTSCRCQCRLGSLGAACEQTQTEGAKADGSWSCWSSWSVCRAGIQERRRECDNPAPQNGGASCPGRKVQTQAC
T8 sequence (P07358 55-591): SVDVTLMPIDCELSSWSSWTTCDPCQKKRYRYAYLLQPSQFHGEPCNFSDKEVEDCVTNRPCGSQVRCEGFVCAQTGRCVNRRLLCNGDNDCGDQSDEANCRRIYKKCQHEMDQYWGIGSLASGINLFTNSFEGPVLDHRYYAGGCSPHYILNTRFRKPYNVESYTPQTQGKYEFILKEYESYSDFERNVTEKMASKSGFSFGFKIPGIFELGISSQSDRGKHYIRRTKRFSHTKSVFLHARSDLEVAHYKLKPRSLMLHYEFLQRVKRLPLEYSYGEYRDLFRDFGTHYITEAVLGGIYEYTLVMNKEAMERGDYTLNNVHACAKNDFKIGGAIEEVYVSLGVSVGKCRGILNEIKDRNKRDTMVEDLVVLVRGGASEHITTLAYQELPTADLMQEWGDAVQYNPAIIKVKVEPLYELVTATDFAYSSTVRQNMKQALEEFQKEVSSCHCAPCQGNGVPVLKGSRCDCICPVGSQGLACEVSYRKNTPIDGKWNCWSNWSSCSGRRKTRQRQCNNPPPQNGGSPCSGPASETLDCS
T8 sequence (P07360 21-202): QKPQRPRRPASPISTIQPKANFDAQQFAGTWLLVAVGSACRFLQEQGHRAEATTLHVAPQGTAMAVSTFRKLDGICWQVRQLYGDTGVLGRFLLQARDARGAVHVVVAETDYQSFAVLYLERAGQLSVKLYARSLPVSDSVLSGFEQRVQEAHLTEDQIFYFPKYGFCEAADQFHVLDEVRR
T11 sequence (P00746 26-253): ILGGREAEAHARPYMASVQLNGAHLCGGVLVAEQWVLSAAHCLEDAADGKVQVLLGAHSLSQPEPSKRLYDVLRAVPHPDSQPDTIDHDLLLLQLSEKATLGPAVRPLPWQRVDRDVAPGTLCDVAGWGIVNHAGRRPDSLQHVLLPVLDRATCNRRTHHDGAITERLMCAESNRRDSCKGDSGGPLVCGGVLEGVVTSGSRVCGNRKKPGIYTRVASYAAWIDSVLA
T6 sequence (P27918 28-469): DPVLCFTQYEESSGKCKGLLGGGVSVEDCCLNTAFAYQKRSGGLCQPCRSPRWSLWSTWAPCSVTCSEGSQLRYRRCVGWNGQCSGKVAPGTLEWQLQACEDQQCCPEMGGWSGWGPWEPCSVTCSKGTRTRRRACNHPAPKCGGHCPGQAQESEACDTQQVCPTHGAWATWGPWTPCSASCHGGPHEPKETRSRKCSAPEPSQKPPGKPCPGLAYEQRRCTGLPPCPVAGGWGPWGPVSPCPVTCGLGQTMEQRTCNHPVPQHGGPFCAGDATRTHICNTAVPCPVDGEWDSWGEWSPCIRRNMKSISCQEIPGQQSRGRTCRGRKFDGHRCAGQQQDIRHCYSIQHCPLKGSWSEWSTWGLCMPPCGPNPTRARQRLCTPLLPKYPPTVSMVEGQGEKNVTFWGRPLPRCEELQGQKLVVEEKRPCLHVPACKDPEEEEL

| SMILES | binding to C4 (C4) | bands for the opsonization steps versus unprotected lane [2] | detection of membrane attack complex on red cell membranes [2] | hemolysis of red cells [2] | bands for PC3bBb and PC3bBbC3b on RBC membranes [3] | bands for the earlier steps of PC3b and PC3bB on RBC membranes [3] | stage at which membrane attack complex formation is arrested [4] | binding to Factor B (Factor B) | binding to C9 (C9) | binding to C3 (C3) | binding to C7 (C7) | binding to properdin (properdin) | binding to C5 (C5) | binding to C8 (C8) | binding to C6 (C6) | binding to C2 (C2) | binding to Factor D (Factor D) | also measured |
| --- | --- | --- | --- | --- | --- | --- | --- | --- | --- | --- | --- | --- | --- | --- | --- | --- | --- | --- |
| CC(=O)Oc1ccc(-c2ccc(OC(C)=O)c(C(=O)O)c2)cc1C(=O)O [DAS-1, 4,4′-diacetoxy-[1,1′-biphenyl]-3,3′-dicarboxylic acid] | did not bind | Identical bands | not detected | not hemolyzed | did not form | strong bands | arrested at the C8 stage | did not bind | bound strongly | did not bind | did not bind | no binding | did not bind | did not bind | did not bind | did not bind | bound strongly | IC50 ([1]; 1 hour at 37° C., OD 405 nm): 168 nM; IC50 ([5]; 1 hour at 37° C., OD 405 nm): 142 nM; IC50 ([6]; 1 hour at 37° C., OD 405 nm): 208 nM; IC50 ([7]; 1 hour at 37° C., OD 405 nm): 294 nM |
| CC(=O)Oc1ccc(Cc2ccc(OC(C)=O)c(C(=O)O)c2)cc1C(=O)O [DAS-2, 5,5′-methylenebis(2-acetoxybenzoic acid)] | did not bind | Identical bands | not detected | not hemolyzed | did not form | strong bands | same results as in lane 3 | did not bind | bound strongly | did not bind | did not bind | no binding | did not bind | did not bind | did not bind | did not bind | bound strongly | IC50 ([1]; unit inferred): 128 nM; IC50 ([5]; unit inferred): 98 nM; IC50 ([6]; unit inferred): 113 nM; IC50 ([7]; unit inferred): 167 nM |
| CC(=O)Oc1ccccc1C(=O)O [acetylsalicylic acid, reference compound] | – | – | – | – | – | – | – | – | – | – | – | – | – | – | – | – | – | protective effect against hemolysis (FIG. 3C) ([6]; added at 1 mM, serum species not singled out (FIG. 3 covers human, rat, cat, dog)): no protective effect |
